In US20120255051A1, “HERBICIDE TOLERANT PLANTS” (priority 2009, published 2012):

Tested on: Brassica plants comprising mutant AHAS alleles
Assay: Field trial, pre-planting treatment (0, 10, 20, 30 g a.i./ha), two locations in Canada: ERG, EST1, EST2, PPTOX, VIG1, VIG2, VIG3 scores
Type: in vivo, Brassica napus
Conditions: for establishment (EST1) score Av, 14 days after sowing / emergence (ERG) score Av: AHAS1 WT
Source text: Tests were set up and conducted to asses the growth and performance of plants comprising AHAS full knock-out alleles, and to further analyze the correlation between the presence of full knockout and missense AHAS genes in Brassica plants and plant growth and herbicide tolerance of the Brassica plants in the field. To this end, the Brassica plants identified in Example 1 and 2 were backcrossed two times with an elite parent line, and subsequently selfed twice to obtain homozygous plants (BC2S2). Plants were grown as row plots in a split plot design with three replicates (main plots=herbicide treatments, subplots=genotypes) at two locations in Canada. Treatment pre-planting was carried out on the soil about two days before sowing with a dose of 0 (treatment A), 10 (treatment B), 20 (treatment C) or 30 (treatment D) g a.i./ha of thiencarbazone methyl. Herbicide tolerance was measured by scoring for different parameters. The parameter emergence (ERG) was scored at the cotyledon stage on a scale 1-9, where 1 means late emergence and 9 means early emergence. Establishment was scored 14 days after sowing (EST1) and 21 days after sowing (EST2). Scores were from 1 to 9, where 1 is the worst establishment (least plants that emerged), and 9 is the best establishment (most plants emerged). Phytotoxicity (PPTOX) was determined after establishment. Plants were evaluated on a scale of 1 to 9, where 1=completely yellowing, 5=50% of plant is yellow and 9=no yellowing. The vigor scores (see above) were determined at 1-2 leaf stage (VIG1), 7 days after VIG1 (VIG2) and 14 days after VIG1 (VIG3). The average values (Av) and standard deviations (SD) of the scores for the different parameters are represented in Table 7a-g.
Further, the contribution of the knock-out allele to herbicide tolerance conferred by the missense allele was calculated. First, the scores were corrected for a possible effect of the growth per se, independent of herbicide treatment. To this end, the scores for treatments B, C and D were divided by the scores for treatment A for the same genotype and for the same parameter (corrected herbicide tolerance scores). Next, the effect of the knock-out allele to these corrected herbicide tolerance scores obtained by the missense allele was calculated. Therefore, the corrected herbicide tolerance scores for the missense—knock-out allele combination was divided by the corrected herbicide tolerance scores for the missense allele—wild-type combination. In case the knock-out allele has no effect on herbicide tolerance conferred by the missense allele, this ratio should be 1. In case the knock-out allele positively contributes to the herbicide tolerance conferred by the missense allele, this ratio should be higher than 1. The results for the contribution of the knock-out allele to herbicide tolerance conferred by the missense allele as calculated above are shown in table 8.

[1] = AHAS3 HETO111 (HETO108+HETO111 series), treatment B 10 g a.i./ha pre-planting, Location B
[2] = AHAS3 HETO111 (HETO108+HETO111 series), treatment C 20 g a.i./ha pre-planting, Location A
[3] = AHAS3 HETO111 (HETO108+HETO111 series), treatment C 20 g a.i./ha pre-planting, Location B
[4] = AHAS3 HETO111 (HETO108+HETO111 series), treatment D 30 g a.i./ha pre-planting, Location A
[5] = AHAS3 HETO111 (HETO108+HETO111 series), treatment D 30 g a.i./ha pre-planting, Location B
[6] = AHAS3 HETO111 (HETO112+HETO111 series), treatment B 10 g a.i./ha pre-planting, Location A
[7] = AHAS3 HETO111 (HETO112+HETO111 series), treatment B 10 g a.i./ha pre-planting, Location B
[8] = AHAS3 HETO111 (HETO112+HETO111 series), treatment C 20 g a.i./ha pre-planting, Location A
[9] = AHAS3 HETO111 (HETO112+HETO111 series), treatment C 20 g a.i./ha pre-planting, Location B
[10] = AHAS3 HETO111 (HETO112+HETO111 series), treatment D 30 g a.i./ha pre-planting, Location A
[11] = AHAS3 HETO111 (HETO112+HETO111 series), treatment D 30 g a.i./ha pre-planting, Location B
[12] = AHAS3 WT (HETO108+HETO104 series), treatment B 10 g a.i./ha pre-planting, Location A
[13] = AHAS3 WT (HETO108+HETO104 series), treatment B 10 g a.i./ha pre-planting, Location B
[14] = AHAS3 WT (HETO108+HETO104 series), treatment C 20 g a.i./ha pre-planting, Location A
[15] = AHAS3 WT (HETO108+HETO104 series), treatment C 20 g a.i./ha pre-planting, Location B
[16] = AHAS3 WT (HETO108+HETO104 series), treatment D 30 g a.i./ha pre-planting, Location A
[17] = AHAS3 WT (HETO108+HETO104 series), treatment D 30 g a.i./ha pre-planting, Location B
[18] = AHAS3 WT (HETO108+HETO111 series), treatment B 10 g a.i./ha pre-planting, Location A
[19] = AHAS3 WT (HETO108+HETO111 series), treatment B 10 g a.i./ha pre-planting, Location B
[20] = AHAS3 WT (HETO108+HETO111 series), treatment C 20 g a.i./ha pre-planting, Location A
[21] = AHAS3 WT (HETO108+HETO111 series), treatment C 20 g a.i./ha pre-planting, Location B
[22] = AHAS3 WT (HETO108+HETO111 series), treatment D 30 g a.i./ha pre-planting, Location A
[23] = AHAS3 WT (HETO108+HETO111 series), treatment D 30 g a.i./ha pre-planting, Location B
[24] = AHAS3 WT (HETO112+HETO111 series), treatment B 10 g a.i./ha pre-planting, Location A
[25] = AHAS3 WT (HETO112+HETO111 series), treatment B 10 g a.i./ha pre-planting, Location B
[26] = AHAS3 WT (HETO112+HETO111 series), treatment C 20 g a.i./ha pre-planting, Location A
[27] = AHAS3 WT (HETO112+HETO111 series), treatment C 20 g a.i./ha pre-planting, Location B
[28] = AHAS3 WT (HETO112+HETO111 series), treatment D 30 g a.i./ha pre-planting, Location A
[29] = AHAS3 WT (HETO112+HETO111 series), treatment D 30 g a.i./ha pre-planting, Location B

COC(=O)c1csc(C)c1S(=O)(=O)NC(=O)n1nc(OC)n(C)c1=O [thiencarbazone-methyl, methyl 4-[(4,5-dihydro-3-methoxy-4-methyl-5-oxo-1H-1,2,4-triazol-1-yl)carbonylsulfamoyl]-5-methylthiophene-3-carboxylate]
establishment (EST1) score Av, 14 days after sowing (AHAS3 HETO111 (HETO108+HETO111 series), treatment B 10 g a.i./ha pre-planting, Location A): 5.00 | emergence (ERG) score Av [1]: 5.00 | establishment (EST1) score Av, 14 days after sowing [1]: 6.00 | emergence (ERG) score Av [2]: 4.67 | establishment (EST1) score Av, 14 days after sowing [2]: 5.33 | emergence (ERG) score Av [3]: 4.00 | establishment (EST1) score Av, 14 days after sowing [3]: 4.67 | emergence (ERG) score Av [4]: 4.33 | establishment (EST1) score Av, 14 days after sowing [4]: 4.33 | emergence (ERG) score Av [5]: 4.00 | establishment (EST1) score Av, 14 days after sowing [5]: 4.33 | emergence (ERG) score Av [6]: 5.33 | establishment (EST1) score Av, 14 days after sowing [6]: 5.67 | emergence (ERG) score Av [7]: 4.67 | establishment (EST1) score Av, 14 days after sowing [7]: 6.00 | emergence (ERG) score Av [8]: 4.33 | establishment (EST1) score Av, 14 days after sowing [8]: 4.67 | emergence (ERG) score Av [9]: 4.67 | establishment (EST1) score Av, 14 days after sowing [9]: 4.67 | emergence (ERG) score Av [10]: 4.33 | establishment (EST1) score Av, 14 days after sowing [10]: 4.33 | emergence (ERG) score Av [11]: 3.67 | establishment (EST1) score Av, 14 days after sowing [11]: 4.00 | emergence (ERG) score Av [12]: 1.00 | establishment (EST1) score Av, 14 days after sowing [12]: 1.00 | emergence (ERG) score Av [13]: 3.00 | establishment (EST1) score Av, 14 days after sowing [13]: 4.33 | emergence (ERG) score Av [14]: 1.00 | establishment (EST1) score Av, 14 days after sowing [14]: 1.00 | emergence (ERG) score Av [15]: 1.67 | establishment (EST1) score Av, 14 days after sowing [15]: 3.67 | emergence (ERG) score Av [16]: 1.00 | establishment (EST1) score Av, 14 days after sowing [16]: 1.00 | emergence (ERG) score Av [17]: 1.33 | establishment (EST1) score Av, 14 days after sowing [17]: 1.33 | emergence (ERG) score Av [18]: 2.33 | establishment (EST1) score Av, 14 days after sowing [18]: 2.67 | emergence (ERG) score Av [19]: 3.33 | establishment (EST1) score Av, 14 days after sowing [19]: 4.33 | emergence (ERG) score Av [20]: 1.00 | establishment (EST1) score Av, 14 days after sowing [20]: 1.00 | emergence (ERG) score Av [21]: 2.33 | establishment (EST1) score Av, 14 days after sowing [21]: 4.00 | emergence (ERG) score Av [22]: 1.00 | establishment (EST1) score Av, 14 days after sowing [22]: 1.00 | emergence (ERG) score Av [23]: 1.33 | establishment (EST1) score Av, 14 days after sowing [23]: 1.00 | emergence (ERG) score Av [24]: 1.00 | establishment (EST1) score Av, 14 days after sowing [24]: 1.00 | emergence (ERG) score Av [25]: 3.67 | establishment (EST1) score Av, 14 days after sowing [25]: 5.00 | emergence (ERG) score Av [26]: 1.00 | establishment (EST1) score Av, 14 days after sowing [26]: 1.00 | emergence (ERG) score Av [27]: 1.67 | establishment (EST1) score Av, 14 days after sowing [27]: 3.33 | emergence (ERG) score Av [28]: 1.00 | establishment (EST1) score Av, 14 days after sowing [28]: 1.00 | emergence (ERG) score Av [29]: 1.33 | establishment (EST1) score Av, 14 days after sowing [29]: 1.67 | establishment (EST2) score, Av (AHAS1 WT/AHAS3 HETO104, 10 g a.i./ha pre-planting (B), Location A): 2.33
